Data: patent US8163771B2, “11 β-HSD1 modulators” (Exelixis, Inc., priority 2008, dated 2012)

Target: T1, recombinant human 11 β-HSD1 (Homo sapiens, UniProt P28845)
T1 construct: made in house; host or cells: E. coli
Assay: 11 β-HSD1 SPA Assay (Scintillation Proximity Assay)
Format: biochemical
Method in brief: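 Scintillation proximity read-out of cortisol formed from 40 nM [3H]cortisone by purified recombinant human enzyme (30-100 nM, E. coli) with 1 mM NADPH, pH7.4, 2 hours at room temperature; beads with cortisol antibody and glycyrrhetinic acid stop the reaction, read next day. IC50 derived from inhibition normalised to background and maximal wells.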

T1 sequence (P28845 whole entry): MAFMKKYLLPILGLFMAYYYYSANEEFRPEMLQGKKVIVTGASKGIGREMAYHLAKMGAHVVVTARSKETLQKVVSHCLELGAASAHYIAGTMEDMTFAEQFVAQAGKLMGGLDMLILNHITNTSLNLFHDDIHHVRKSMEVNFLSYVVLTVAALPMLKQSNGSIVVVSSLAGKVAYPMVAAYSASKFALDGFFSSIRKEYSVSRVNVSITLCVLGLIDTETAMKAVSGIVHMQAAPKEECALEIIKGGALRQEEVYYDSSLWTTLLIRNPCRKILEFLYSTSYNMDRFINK

Row | SMILES | IC50
1 | CC(C)(Oc1cc(F)ccc1C(F)(F)F)C(=O)N[C@H]1C[C@H]2CC[C@@H](C1)N2c1ccc(C(N)=O)cn1 [Example 309, 6-{3-endo-[(2-{[5-fluoro-2-(trifluoromethyl)phenyl]oxy}-2-methylpropanoyl)amino]-8-azabicyclo[3.2.1]oct-8-yl}pyridine-3-carboxamide] | < 200 nM
2 | CC(C)(Oc1ccc2ccccc2n1)C(=O)N[C@H]1C[C@H]2CC[C@@H](C1)N2c1ccc(C(N)=O)cn1 [Example 310, 6-(3-endo-{[2-methyl-2-(quinolin-2-yloxy)propanoyl]amino}-8-azabicyclo[3.2.1]oct-8-yl)pyridine-3-carboxamide] | < 200 nM
3 | CS(=O)(=O)c1cccc(C2(C(=O)N[C@H]3C[C@H]4CC[C@@H](C3)N4c3ccc(C(N)=O)cn3)CC2)c1 [Example 311, 6-{3-endo-[({1-[3-(methylsulfonyl)phenyl]cyclo-propyl}carbonyl)amino]-8-azabicyclo[3.2.1]oct-8-yl}pyridine-3-carboxamide] | < 200 nM
4 | CC(C)(COc1ccc(Cl)cc1C(F)(F)F)C(=O)N[C@H]1C[C@H]2CC[C@@H](C1)N2c1ccc(C(=O)NCC(F)(F)F)cn1 [Example 312, 6-{3-endo-[(3-{[4-chloro-2-(trifluoromethyl)phenyl]oxy}-2,2-dimethylpropanoyl)amino]-8-azabicyclo[3.2.1]oct-8-yl}-N-(2,2,2-trifluoroethyl)pyridine-3-carboxamide] | < 200 nM
5 | CS(=O)(=O)c1cccc(C2(C(=O)N[C@H]3C[C@H]4CC[C@@H](C3)N4c3ccc(S(N)(=O)=O)cn3)CC2)c1 [Example 313, N-{8-[5-(aminosulfonyl)pyridin-2-yl]-8-azabicyclo[3.2.1]oct-3-endo-yl}-1-[3-(methylsulfonyl)phenyl]cyclo-propanecarboxamide] | < 2000 nM
6 | CC(C)(Oc1ncc(Cl)cc1C(F)(F)F)C(=O)N[C@H]1C[C@H]2CC[C@@H](C1)N2c1ccc(S(C)(=O)=O)cn1 [Example 314, 2-{[5-chloro-3-(trifluoromethyl)pyridin-2-yl]oxy}-2-methyl-N-{8-[5-(methylsulfonyl)pyridin-2-yl]-8-azabicyclo[3.2.1]oct-3-endo-yl}propanamide] | < 200 nM
7 | CC(C)(Oc1ccc(F)cc1Cl)C(=O)N[C@H]1C[C@H]2CC[C@@H](C1)N2c1ccc(NS(C)(=O)=O)cc1 [Example 315, 2-[(2-chloro-4-fluorophenyl)oxy]-2-methyl-N-(8-{4-[(methylsulfonyl)amino]phenyl}-8-azabicyclo[3.2.1]oct-3-endo-yl)propanamide] | < 200 nM
8 | CC(C)(Oc1ccc2ccccc2c1)C(=O)N[C@H]1C[C@H]2CC[C@@H](C1)N2c1ccc(C(N)=O)cn1 [Example 316, 6-(3-endo-{[2-methyl-2-(naphthalen-2-yloxy)propanoyl]amino}-8-azabicyclo[3.2.1]oct-8-yl)pyridine-3-carboxamide] | < 200 nM
9 | CC(C)(Oc1ccc(Cl)cc1Cl)C(=O)N[C@H]1C[C@H]2CC[C@@H](C1)N2c1ccc(C(=O)NC2COC2)cn1 [Example 317, 6-[3-endo-({2-[(2,4-dichlorophenyl)oxy]-2-methylpropanoyl}amino)-8-azabicyclo[3.2.1]oct-8-yl]-N-oxetan-3-ylpyridine-3-carboxamide] | < 200 nM
10 | CC(C)(Oc1ccnc2ccccc12)C(=O)N[C@H]1C[C@H]2CC[C@@H](C1)N2c1ccc(C(N)=O)cn1 [Example 318, 6-(3-endo-{[2-methyl-2-(quinolin-4-yloxy)propanoyl]amino}-8-azabicyclo[3.2.1]oct-8-yl)pyridine-3-carboxamide] | < 200 nM
11 | CC(C)(Oc1cc(F)ccc1C(F)(F)F)C(=O)N[C@H]1C[C@H]2CC[C@@H](C1)N2c1ccc(C(=O)NCC(F)(F)F)cn1 [Example 319, 6-{3-endo-[(2-{[5-fluoro-2-(trifluoromethyl)phenyl]oxy}-2-methylpropanoyl)amino]-8-azabicyclo[3.2.1]oct-8-yl}-N-(2,2,2-trifluoroethyl)pyridine-3-carboxamide] | < 200 nM
12 | CC(C)(Oc1ccc(Cl)cc1C1CCCC1)C(=O)N[C@H]1C[C@H]2CC[C@@H](C1)N2c1ccc(C(N)=O)cn1 [Example 320, 6-[3-endo-({2-[(4-chloro-2-cyclopentylphenyl)oxy]-2-methylpropanoyl}amino)-8-azabicyclo[3.2.1]oct-8-yl]pyridine-3-carboxamide] | < 200 nM
13 | CC(C)(Oc1ccc(Cl)cc1S(C)(=O)=O)C(=O)N[C@H]1C[C@H]2CC[C@@H](C1)N2c1ccc(C(=O)NCC(F)(F)F)cn1 [Example 321, 6-{3-endo-[(2-{[4-chloro-2-(methylsulfonyl)phenyl]oxy}-2-methylpropanoyl)amino]-8-azabicyclo[3.2.1]oct-8-yl}-N-(2,2,2-trifluoroethyl)pyridine-3-carboxamide] | < 200 nM
14 | CC(C)(Oc1ccc(Cl)cc1-c1ccccc1)C(=O)N[C@H]1C[C@H]2CC[C@@H](C1)N2c1ccc(C(N)=O)cn1 [Example 322, 6-[3-endo-({2-[(5-chlorobiphenyl-2-yl)oxy]-2-methylpropanoyl}amino)-8-azabicyclo[3.2.1]oct-8-yl]pyridine-3-carboxamide] | < 200 nM
15 | CC(C)(Oc1ccc(Cl)cc1Cl)C(=O)N[C@H]1C[C@H]2CC[C@@H](C1)N2Cc1ccc(C(N)=O)cn1 [Example 323, 6-{[3-endo-({2-[(2,4-dichlorophenyl)oxy]-2-methylpropanoyl}amino)-8-azabicyclo[3.2.1]oct-8-yl]methyl}pyridine-3-carboxamide] | < 2000 nM
16 | CC(C)(Oc1ccc(Cl)cc1S(C)(=O)=O)C(=O)N[C@H]1C[C@H]2CC[C@@H](C1)N2c1ccc(S(C)(=O)=O)cn1 [Example 324, 2-{[4-chloro-2-(methylsulfonyl)phenyl]oxy}-2-methyl-N-{8-[5-(methylsulfonyl)pyridin-2-yl]-8-azabicyclo[3.2.1]oct-3-endo-yl}propanamide] | < 2000 nM
17 | CC(C)(Oc1ncc(Cl)cc1C(F)(F)F)C(=O)N[C@H]1C[C@H]2CC[C@@H](C1)N2c1ccc(S(C)(=O)=O)cc1 [Example 325, 2-{[5-chloro-3-(trifluoromethyl)pyridin-2-yl]oxy}-2-methyl-N-{8-[4-(methylsulfonyl)phenyl]-8-azabicyclo[3.2.1]oct-3-endo-yl}propanamide] | < 200 nM
18 | CC(C)(Oc1ccccc1S(C)(=O)=O)C(=O)N[C@H]1C[C@H]2CC[C@@H](C1)N2c1ccc(C(N)=O)cn1 [Example 326, 6-{3-endo-[(2-methyl-2-{[2-(methylsulfonyl)phenyl]oxy}propanoyl)amino]-8-azabicyclo[3.2.1]oct-8-yl}pyridine-3-carboxamide] | < 200 nM
19 | CC(C)(Oc1ccc(Cl)cc1Cl)C(=O)N[C@H]1C[C@H]2CC[C@@H](C1)N2C(=O)c1cccc(C(N)=O)c1 [Example 327, 3-{[3-endo-({2-[(2,4-dichlorophenyl)oxy]-2-methylpropanoyl)amino)-8-azabicyclo[3.2.1]oct-8-yl]carbonyl}benzamide] | < 2000 nM
20 | CC(C)(Sc1ccc(Cl)cc1Cl)C(=O)N[C@H]1C[C@H]2CC[C@@H](C1)N2c1ccc(S(C)(=O)=O)cn1 [Example 328, 2-[(2,4-dichlorophenyl)thio]-2-methyl-N-{8-[5-(methylsulfonyl)pyridin-2-yl]-8-azabicyclo[3.2.1]oct-3-endo-yl}propanamide] | < 200 nM
